# Data from US20250188079A1, “INHIBITING CYCLIC AMP-RESPONSIVE ELEMENT-BINDING PROTEIN (CREB)” (Forma Therapeutics, Inc., priority 2019, published 2025).
# Biological target: CBP (Homo sapiens (Human), UniProt Q92793)
# Test: HTRF biochemical assay for CBP activity (TR-FRET, bromodomain)
# Type: binding
# Conditions: geometric mean, 10-point 3-fold dilution 33 μM to 1.7 nM, read-out: BROMO IC50 TRF TB CBP (μM gmean)
# Experimental: Example 1: HTRF Biochemical Assay for CBP Activity
# The assay was performed in a final volume of 6 μL in assay buffer containing 50 mM Hepes (pH 7.5, (0.5M Hepes, pH 7.5 solution; Teknova H1575)), 0.5 mM GSH, 0.01% BGG (0.22 p M filtered, Sigma, G7516-25G), 0.005% BSA (0.22 μM filtered, EMD Millipore Corporation, 126575) and 0.01% Triton X-100 (Sigma, T9284-10L). Nanoliter quantities of 10-point, 3-fold serial dilution in DMSO were pre-dispensed into 1536 assay plates (Corning, #3724BC) for a final test concentration of 33 μM to 1.7 nM, top to lowest dose, respectively. 3 μL of 2×Protein and 3 μL of 2×Peptide Ligand were added to assay plates (pre-stamped with compound). Plates were incubated for varying times at room temperature prior to measuring the signal. TR-FRET (Time-Resolved Fluorescence Resonance Energy Transfer) was measured on the PHERAstar (BMG, equipped with HTRF optic module [337/520/490]) or on the Envision (PerkinElmer, equipped with the TRF Laser unit, TRF dual mirror D400/D505 and emission filters M520 and M495). Data were reported as percent inhibition compared with control wells based on the following equation: % inh=1−((TR-FRET ratio−AveLow)/(AveHigh−AveLow)) where TR-FRET ratio=(Fluorescence at 520 nm/Fluorescence at 490 nm)*10000), AveLow=average TR-FRET ratio of no enzyme control (n=32), and AveHigh=average TR-FRET ratio of DMSO control (n=32). IC50 values were determined by curve fitting of the standard 4 parameter logistic fitting algorithm included in the Activity Base software package: IDBS XE Designer Model205. Data is fitted using the Levenburg Marquardt algorithm. As set forth in Table 2 below, an IC50 value of greater than or equal to 0.001 μM and less than or equal to 0.01 μM is marked “++++”; a value greater than 0.01 μM and less than or equal to 0.1 μM is marked “+++”; a value greater than 0.1 μM and less than or equal to 1 μM is marked “++”; and a value greater than 1 μM and less than 1000 μM is marked “+.” Compounds that were not tested in a particular assay are marked “NT.”
# CBP, sequence (Q92793 1085-1192): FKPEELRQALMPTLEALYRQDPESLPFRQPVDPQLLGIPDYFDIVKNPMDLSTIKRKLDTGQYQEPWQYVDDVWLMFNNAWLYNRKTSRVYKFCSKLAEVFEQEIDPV
row,SMILES,IC50 [µM]
1,"COC(=O)N1CCc2ccc3c(nc([C@H]4CCC[C@H](C(=O)O)C4)n3[C@@H](C)Cc3ccccc3C)c2C1 (single isomer, unassigned) [Compound 18]",0.001 to 0.01
2,COC(=O)N1CCc2ccc3c(nc([C@H]4CC[C@H](C(=O)O)CC4)n3[C@H](C)Cc3cccc(F)c3F)c2C1 [Compound 266],0.01 to 0.1
3,COC(=O)N1CCc2ccc3c(nc(C4CCCCC4)n3[C@H](C)C[C@H]3CCCC[C@@H]3C(=O)O)c2C1 [Compound 112],0.001 to 0.01
4,COC(=O)N1CCc2ccc3c(nc(-c4cccc([C@](C)(O)C(=O)O)c4)n3[C@H](C)Cc3ccccc3)c2C1 [Compound 140],0.001 to 0.01
5,COC(=O)N1CCc2ccc3c(nc(C4CCCCC4)n3CCc3ccccc3C(=O)O)c2C1 [Compound 137],0.001 to 0.01
6,COC(=O)N1CCc2ccc3c(nc(N4CCOCC4)n3[C@@H](C)Cc3cccc(C(=O)O)c3)c2C1 [Compound 182],0.01 to 0.1
7,COC(=O)N1CCc2ccc3c(nc([C@H]4CC[C@H](C(=O)O)CC4)n3[C@@H](CO)Cc3ccccc3)c2C1 [Compound 151],0.001 to 0.01
8,"COC(=O)N1CCc2ccc3c(nc([C@@H]4CCC[C@@H](C(=O)O)C4)n3[C@H](C)Cc3ccccc3Cl)c2C1 (single isomer, unassigned) [Compound 263]",0.01 to 0.1
9,COC(=O)N1CCc2ccc3c(nc(C4CCCCC4)n3[C@@H](C)C[C@H]3CC[C@@H](C(=O)O)CC3)c2C1 [Compound 274],0.01 to 0.1
10,COC(=O)N1CCc2ccc3c(nc(C45CC(C(=O)O)(C4)C5)n3[C@@H](C)Cc3ccccc3)c2C1 [Compound 119],0.001 to 0.01
11,COC(=O)N1CCc2ccc3c(nc(C4CCCCC4)n3C[C@H](C(=O)O)c3ccc(F)c(OC)c3)c2C1 [Compound 9],0.001 to 0.01
12,COC(=O)N1CCc2ccc3c(nc([C@H]4CC[C@H](C(=O)O)CC4)n3CCc3ccc(OC(F)F)cc3)c2C1 [Compound 155],0.001 to 0.01
13,"COC(=O)N1CCc2ccc3c(nc([C@@H]4CCC[C@H](C(=O)O)C4)n3[C@H](C)Cc3ccccc3)c2C1 (single isomer, unassigned) [Compound 233]",0.01 to 0.1
14,COC(=O)N1CCc2ccc3c(nc([C@H]4C[C@@H](C(=O)O)C4)n3[C@@H](C)Cc3ccccc3C)c2C1 [Compound 130],0.001 to 0.01
15,COC(=O)N1CCc2ccc3c(nc([C@H]4CC[C@@H](C(=O)O)C4)n3[C@H](C)Cc3ccccc3C)c2C1 [Compound 59],0.001 to 0.01
16,COC(=O)N1CCc2ccc3c(nc(C4CCCCC4)n3CC[C@@H]3CCC[C@H](C(=O)O)C3)c2C1 [Compound 131],0.001 to 0.01
17,COC(=O)N1CCc2ccc3c(nc([C@H]4CC[C@H](C(=O)O)CC4)n3[C@@H](C)C(F)(F)c3ccccc3)c2C1 [Compound 338],0.1 to 1
18,COC(=O)N1CCc2ccc3c(nc(C4CCCCC4)n3[C@H](C)C[C@H]3CC[C@H](C(=O)O)CC3)c2C1 [Compound 237],0.01 to 0.1
19,COC(=O)N1CCc2ccc3c(nc(C4CCCCC4)n3[C@@H](C)C[C@@H]3CCCC[C@@H]3C(=O)O)c2C1 [Compound 120],0.001 to 0.01
20,COC(=O)N1CCc2c(C(=O)O)cc3c(nc(N4CCCCC4)n3C[C@@H](C)c3ccccc3)c2C1 [Compound 103],0.001 to 0.01
21,COC(=O)N1CCc2ccc3c(nc(-c4cccnc4)n3[C@@H](C)Cc3ccccc3)c2C1 [Compound 127],0.001 to 0.01
22,COC(=O)N1CCc2ccc3c(nc([C@H]4CC[C@H](C(=O)O)CC4)n3[C@H](C)Cc3ccc4c(c3)CCO4)c2C1 [Compound 332],0.1 to 1
23,COC(=O)N1CCc2ccc3c(nc([C@@H]4CC[C@H](C(=O)O)C4)n3[C@H](C)Cc3ccccc3C)c2C1 [Compound 329],0.1 to 1
24,COC(=O)N1CCc2ccc3c(nc([C@H]4CC[C@H](C(=O)O)CC4)n3[C@H](C)C[C@H]3CC[C@@H](OC)CC3)c2C1 [Compound 68],0.001 to 0.01
25,COC(=O)N1CCc2ccc3c(nc([C@H]4CC[C@H](S(N)(=O)=O)CC4)n3[C@@H](C)Cc3ccccc3)c2C1 [Compound 97],0.001 to 0.01
26,"COC(=O)N1CCc2ccc3c(nc(N4CCCCC4)n3[C@H](C)Cc3cccc(C(=O)O)c3)c2C1 (single isomer, unassigned) [Compound 33]",0.001 to 0.01
27,COC(=O)N1CCc2ccc3c(nc(N4CCN(C(=O)O)CC4)n3[C@H](C)Cc3ccccc3)c2C1 [Compound 54],0.001 to 0.01

row,SMILES,IC50 [µM]
1,COC(=O)N1CCc2ccc3c(nc(C4CCCCC4)n3C[C@@H](CC(=O)O)c3ccccc3)c2C1 [Compound 8],0.001 to 0.01
2,COC(=O)N1CCc2ccc3c(nc([C@H]4CC[C@H](C(=O)O)CC4)n3[C@@H](C)Cc3cccc(C)c3)c2C1 [Compound 100],0.001 to 0.01
3,COC(=O)N1CCc2c(C(=O)O)cc3c(nc(N4CCCCC4)n3C[C@H](C)c3ccccc3)c2C1 [Compound 247],0.01 to 0.1
4,COC(=O)N1CCc2ccc3c(nc([C@H]4CC[C@H](C(=O)O)CC4)n3[C@H](C)Cc3ccccc3F)c2C1 [Compound 51],0.001 to 0.01
5,"COC(=O)N1CCc2ccc3c(nc(C4CCCCC4)n3C[C@H](C(=O)O)c3cccc(F)c3F)c2C1 (single isomer, unassigned) [Compound 26]",0.001 to 0.01
6,COC(=O)N1CCc2c([C@@H]3CCOC3)cc3c(nc([C@H]4CC[C@H](C(=O)O)CC4)n3[C@@H](C)Cc3ccccc3)c2C1 [Compound 50],0.001 to 0.01
7,"COC(=O)N1CCc2ccc3c(nc(N4CCC(C(=O)O)CC4)n3[C@@H](C)Cc3ccccc3Cl)c2C1 (single isomer, unassigned) [Compound 14]",0.001 to 0.01
8,C[C@H](Cc1ccccc1)n1c2ccc3c(c2nc1[C@H]1CC[C@H](C(=O)O)CC1)CN(C(=O)C1CC1)CC3 [Compound 244],0.01 to 0.1
9,COC(=O)N1CCc2ccc3c(nc([C@H]4CC[C@H](C(=O)O)CC4)n3[C@@H](C)Cc3ccccc3)c2C1 [Compound 192],0.01 to 0.1
10,COC(=O)N1CCc2ccc3c(nc(C4CCCCC4)n3CC[C@H]3CCC[C@@H](C(=O)O)C3)c2C1 [Compound 177],0.01 to 0.1
11,COC(=O)N1CCc2ccc3c(nc(C45CC(C4)C5)n3C[C@H](C(=O)O)c3ccccc3)c2C1 [Compound 128],0.001 to 0.01
12,COC(=O)N1CCc2ccc3c(nc([C@H]4CC[C@H](C(=O)O)CC4)n3[C@@H](C)Cc3ccc(F)c(OC)c3)c2C1 [Compound 43],0.001 to 0.01
13,COC(=O)N1CCc2ccc3c(nc([C@H]4CC[C@@H](S(N)(=O)=O)CC4)n3[C@@H](C)Cc3ccccc3)c2C1 [Compound 166],0.001 to 0.01
14,"COC(=O)N1CCc2ccc3c(nc(C4CCCCC4)n3C[C@@H](C(=O)O)c3cc(F)c(Cl)cc3OC)c2C1 (single isomer, unassigned) [Compound 32]",0.001 to 0.01
15,COC(=O)N1Cc2c(ccc3c2nc(C2CCCCC2)n3Cc2ccccc2)CC1C (stereo not drawn) [Compound 328],0.1 to 1
16,COC(=O)N1CCc2ccc3c(nc(C4CCCCC4)n3CC[C@@H]3CCCC[C@H]3C(=O)O)c2C1 [Compound 235],0.01 to 0.1
17,COC(=O)N1CCc2ccc3c(nc(-c4ccc(C(=O)O)c(F)c4)n3[C@H](C)Cc3ccccc3)c2C1 [Compound 280],0.01 to 0.1
18,COC(=O)N1CCc2ccc3c(nc(C4CCCCC4)n3CC[C@H]3CCCC[C@H]3C(=O)O)c2C1 [Compound 193],0.01 to 0.1
19,COC(=O)N1CCc2ccc3c(nc([C@H]4CC[C@H](OC)CC4)n3C[C@H](C(=O)O)c3ccccc3)c2C1 [Compound 1],0.001 to 0.01
20,"COC(=O)N1CCc2ccc3c(nc(C4CCCCC4)n3C[C@@H](C(=O)O)c3cc(F)ccc3OC)c2C1 (single isomer, unassigned) [Compound 11]",0.001 to 0.01
21,COC(=O)N1CCc2ccc3c(nc([C@H]4CC[C@H](C(=O)O)CC4)n3[C@@H](C)CC3CCCCC3)c2C1 [Compound 200],0.01 to 0.1
22,COC(=O)N1CCc2ccc3c(nc([C@H]4CC[C@H](S(N)(=O)=O)CC4)n3[C@H](C)Cc3ccccc3)c2C1 [Compound 301],0.1 to 1
23,COC(=O)N1CCc2ccc3c(nc([C@H]4CC[C@H](C(=O)O)CC4)n3[C@@H](C)Cn3cc(Cl)cn3)c2C1 [Compound 85],0.001 to 0.01
24,COC(=O)N1CCc2ccc3c(nc(C4CCN(S(N)(=O)=O)CC4)n3[C@H](C)Cc3ccccc3)c2C1 [Compound 330],0.1 to 1
25,COC(=O)N1CCc2ccc3c(nc(Cc4cc(O)no4)n3[C@H](C)Cc3ccccc3)c2C1 [Compound 273],0.01 to 0.1
26,"COC(=O)N1CCc2ccc3c(nc([C@H]4CC[C@H](C(=O)NS(C)(=O)=O)CC4)n3[C@@H](C)Cc3ccccc3)c2C1 (single isomer, unassigned) [Compound 15]",0.001 to 0.01
27,COC(=O)N1CCc2ccc3c(nc([C@H]4CC[C@H](C(=O)O)CC4)n3[C@@H](C)[C@@H](O)c3ccccc3)c2C1 [Compound 92],0.001 to 0.01
